Source: patent US20230286973A1, “PROTEIN SECRETION INHIBITORS” (KEZAR LIFE SCIENCES, priority 2020, published 2023)

Columns and labels:
[1] = test system: multiple myeloma cell line NCI-H929; experiment: H929 Cell Viability Assay; format: cell-based, human; details: Homo sapiens, NCI-H929, 48 h, NCI-H929 cells, Celltiter-Glo
In short: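 NCI-H929 cells, resuspended in RPMI 1640 with 10% FBS and 2 mM glutamine, were treated with compound dilutions in DMSO/media and incubated 48 hours at 37° C, 5% CO2. Viability was read by CellTiter-Glo luminescence. Compounds drawn without stereochemistry were tested as stereoisomer mixtures.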

[2] = Liver Microsome Stability Assay (human); details: human liver microsomes, with NADPH, 1.0 uM compound
Procedure: (§1) Stability of a compound was assessed in the presence of liver microsomes from various sources—mouse, rat, monkey and human liver microsomes. 1.0 uM compound, 0.4% DMSO in 0.1 M Potassium Phosphate with 1.0 mg/mL liver microsomes, were incubated at 37° C. with or without 1 mM NADPH. The samples were quenched at 0, and 30 minutes.

[3] = Liver Microsome Stability Assay (rat); details: rat liver microsomes, with NADPH, 1.0 uM compound
Procedure: as §1

[4] = test system: PD1-ss+10aa/Gaussia Luciferase; experiment: Dox-Induced PD1-ss-Gluc Assay; format: cell-based; details: 24 hr Dox induction; 293FRT/TO cells; mean; read-out: 24 hr Dox Inducible PD1ssGluc 293FRT/TO: Mean IC50
In short: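 Compounds were added in DMSO/media with doxycycline and incubated at 37 °C, 5% CO2, on 293 T-REx cells plated one day earlier. These cells stably express, under tetracycline-regulated control, a Gaussia luciferase fused to the PD1 signal peptide plus 10 residues. Structures drawn without stereochemistry were tested as stereoisomer mixtures.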

[5] = test system: TNFα-FL/Gaussia Luciferase; experiment: Dox Induced TNFα-FL-Gluc Assay; format: cell-based; details: for IC50: 24 hr Dox induction, 293FRT/TO cells, mean, read-out: 24 hr Dox Inducible TNFaFLGluc 293FRT/TO: Mean IC50; for 24 hr Dox Inducible TNFaFLGluc 293FRT/TO: TNF/PD1: ratio of TNFaFLGluc IC50 to PD1ssGluc IC50, '<=>' given where both are I.A.
In short: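 Flp-In 293 T-REx cells stably expressing full-length TNFα (aa 1-233) fused at its C-terminus to Gaussia luciferase under tetracycline-regulated control were plated the day before assay. Compound dilutions in DMSO/media containing doxycycline were added and incubated at 37 °C, 5% CO2. Unspecified stereochemistry denotes stereoisomer mixtures.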

[6] = test system: multiple myeloma cell line U266B1; experiment: U266 Cell Viability Assay; format: cell-based, human; details: Homo sapiens, U-266, 48 h, U266B1 cells, Celltiter-Glo
In short: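 Cells grown in RPMI 1640 with 10% FBS, 2 mM glutamine and penicillin/streptomycin were exposed to compound dilutions in DMSO/media for 48 hours at 37° C., 5% CO2. Viability was read by CellTiter-Glo luminescence. Undefined stereocentres mean data for stereoisomer mixtures.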

[7] = test system: IL-2-FL/Gaussia Luciferase; experiment: Dox Induced IL2-FL-Gluc Assay; format: cell-based; details: for IC50: 24 hr Dox induction, 293FRT/TO cells, mean, read-out: 24 hr Dox Inducible IL2FLGluc 293FRT/TO: Mean IC50; for 24 hr Dox Inducible IL2FLGluc 293FRT/TO: IL2/PD1: ratio of IL2FLGluc IC50 to PD1ssGluc IC50, '<=>' given where both are I.A.
In short: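 Flp-In 293 T-REx cells stably carrying doxycycline-inducible full-length IL-2 (aa 1-153) fused at its C-terminus to Gaussia luciferase, selected with hygromycin and blasticidin. Cells were plated the day before, then treated with compounds in DMSO/media containing doxycycline at 37° C, 5% CO2.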

[8] = test system: HER3-ss+4aa/Gaussia Luciferase; experiment: Dox-Induced Her3-ss-Gluc Assay; format: cell-based; details: 24 hr Dox induction; 293FRT/TO cells; mean; read-out: 24 hr Dox Inducible Her3(ss + 4)Gluc 293FRT/TO: Mean IC50
In short: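 Stable Flp-In 293 T-REx line expressing Gaussia luciferase fused to the HER3 signal sequence plus 4 amino acids under tetracycline-regulated (T-REx) control. Cells plated the day before, then treated with compound dilutions in DMSO/media containing doxycycline and incubated at 37° C., 5% CO2.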

[9] = Liver Microsome Stability Assay (mouse); details: mouse liver microsomes, with NADPH, 1.0 uM compound
Procedure: as §1

[10] = Liver Microsome Stability Assay (monkey); details: monkey liver microsomes, with NADPH, 1.0 uM compound
Procedure: as §1

Row | EC50 [1] [µM] | Liver Microsome Stability (Multiple Species): Human - % Remaining after 30 min w/NADPH [2] [%] | Liver Microsome Stability (Multiple Species): Rat - % Remaining after 30 min w/NADPH [3] [%] | IC50 [4] [µM] | IC50 [5] [µM] | EC50 [6] [µM] | IC50 [7] [µM] | IC50 [8] [µM] | Liver Microsome Stability (Multiple Species): Mouse - % Remaining after 30 min w/NADPH [9] [%] | Liver Microsome Stability (Multiple Species): Monkey - % Remaining after 30 min w/NADPH [10] [%] | Structure (SMILES) | 24 hr Dox Inducible TNFaFLGluc 293FRT/TO: TNF/PD1 [5] | 24 hr Dox Inducible IL2FLGluc 293FRT/TO: IL2/PD1 [7]
1 | > 25 | 0.35 | 0.35 | 0.798 | > 25 | > 25 | 13.1 | 7.18 | 2.41 | 0.6 | O=C(Nc1nc(C#Cc2ccccn2)cs1)c1cccn1Cc1ccncc1 [Compound E3, N-(4-(pyridin-2-ylethynyl)thiazol-2-yl)-1-(pyridin-4-ylmethyl)-1H-pyrrole-2-carboxamide] | >31.3 | 16
2 | > 25 | 0.12 | 0.19 | 0.439 | > 25 | > 25 | 5.2 | 5.08 | 0.27 | 0.14 | Cc1nc(CCc2csc(NC(=O)c3cccn3Cc3ccncc3)n2)co1 [Compound E4] | >57.0 | 12
3 | 8.09 | 5.77 | 46.1 | 0.125 | > 25 | 19.6 | 1.23 | 1.06 | 16.7 | 2.47 | C/C(=C\c1csc(NC(=O)c2cccn2Cc2ccncc2)n1)c1ccc(OC(F)(F)F)cn1 [Compound E5, (E)-1-(pyridin-4-ylmethyl)-N-(4-(2-(5-(trifluoromethoxy)pyridin-2-yl)prop-1-en-1-yl)thiazol-2-yl)-1H-pyrrole-2-carboxamide] | >199 | 9.8
4 | 24.2 | 0.67 | 0.75 | 0.208 | 6.04 | > 25 | 1.78 | 1.28 | 1.82 | 0.57 | O=C(Nc1nc(CCC2CCCCO2)cs1)c1cccn1Cc1ccncc1 (stereo not drawn) [Compound E6, 1-(pyridin-4-ylmethyl)-N-(4-(2-(tetrahydro-2H-pyran-2-yl)ethyl)thiazol-2-yl)-1H-pyrrole-2-carboxamide] | 29.1 | 8.6
5 | > 25 | 0.1 | 0.28 | 0.158 | 2.76 | > 25 | 1.19 | 0.947 | 0.38 | 0.23 | O=C(Nc1nc(CCc2ccc(OC(F)(F)F)cn2)cs1)c1cccn1Cc1ccncc1 [Compound E7, 1-(pyridin-4-ylmethyl)-N-(4-(2-(5-(trifluoromethoxy)pyridin-2-yl)ethyl)thiazol-2-yl)-1H-pyrrole-2-carboxamide] | 17.4 | 7.5
6 | > 25 | 0.01 | 2.86 | 0.695 | > 25 | > 25 | 5.05 | 4.96 | 0.6 | 0.02 | O=C(Nc1nc(CCc2ccccn2)cs1)c1cccn1Cc1ccncc1 [Compound E8, N-(4-(2-(pyridin-2-yl)ethyl)thiazol-2-yl)-1-(pyridin-4-ylmethyl)-1H-pyrrole-2-carboxamide] | >35.9 | 7.3
7 | > 25 | 0.86 | 4.69 | 0.775 | 19.5 | > 25 | 3.64 | 3.92 | 19 | 2.42 | O=C(Nc1nc(CC2CCCCO2)cs1)c1cccn1Cc1ccncc1 (stereo not drawn) [Compound E9, 1-(pyridin-4-ylmethyl)-N-(4-((tetrahydro-2H-pyran-2-yl)methyl)thiazol-2-yl)-1H-pyrrole-2-carboxamide] | 25.1 | 4.7
8 | > 25 | 0.37 | 0.39 | 5.76 | > 25 | > 25 | 5.41 | 4.93 | 0.46 | 0.06 | O=C(Nc1nc([C@H]2CCCN2c2ccccc2)cs1)c1cccn1CCCc1cccnc1 [Compound E10, (R)-N-(4-(1-phenylpyrrolidin-2-yl)thiazol-2-yl)-1-(3-(pyridin-3-yl)propyl)-1H-pyrrole-2-carboxamide] | >4.34 | 0.94
9 | > 25 | 0.97 | 2.06 | 2.18 | > 25 | > 25 | 8.24 | 8.17 | 0.36 | 1.33 | O=C(Nc1nc(Cc2ccccn2)cs1)c1cccn1Cc1ccncc1 [Compound E11, N-(4-(pyridin-2-ylmethyl)thiazol-2-yl)-1-(pyridin-4-ylmethyl)-1H-pyrrole-2-carboxamide] | >11.4 | 3.8
10 | > 25 | 0.45 | 0.83 | 0.124 | 7.89 | > 25 | 0.432 | 0.213 | 0.23 | 0.19 | O=C(Nc1nc(CCc2coc(-c3ccccc3)n2)cs1)c1cccn1Cc1ccncc1 [Compound E12, N-(4-(2-(2-phenyloxazol-4-yl)ethyl)thiazol-2-yl)-1-(pyridin-4-ylmethyl)-1H-pyrrole-2-carboxamide] | 63.4 | 3.5
